Measurements: US20080103198A1, “METHODS FOR TREATMENT OF COCHLEAR AND VESTIBULAR DISORDERS” (priority 2006, published 2008)
“And” between values parts separate entries of the source, which are not always exact repeats. Equal entries are not always repeated.

How the values were obtained:
[1] = test system: Li-Pilo SE; assay: Lithium-pilocarpine model (Example 2): mortality and latency to SRS; type: in vivo, rat; set-up: degree of mortality: concentration or dose not given beside the values; conditions: for mortality over the first 48 h after SE: early cell counting group; for degree of mortality: latency to SRS / late cell counting group
Procedure: The model induced in rats by pilocarpine associated with lithium (Li-Pilo) reproduces most of the clinical and neurophysiological features of human temporal lobe epilepsy (See, Turski et al., 1989; Synapse 3:154-171; Cavalheiro, 1995, Ital J Neurol Sci 16:33-37). In adult rats, the systemic administration of pilocarpine leads to SE that may last for up to 24 h. The lethality rate reaches 30-50% during the first days. In the surviving animals, neuronal damage predominates within the hippocampal formation, the piriform and entorhinal cortices, thalamus, amygdaloid complex, neocortex and substantia nigra.
In the present study, we tested the effects of different doses of various doses of test compound, i.e. 30, 60, 90 and 120 mg/kg (referred to herein as RWJ30, RWJ60, RWJ90 and RWJ120) using the same design as in the previous study. The treatment was started one hour after the onset of status epilepticus (SE) and the animals were treated with a second injection of the same dose of the drug. This early treatment of SE was followed by a 6 day test compound treatment. This report concerns the effects of the four different doses of test compound on neuronal damage in hippocampus and parahippocampal cortices. The study on the latency to the onset of epilepsy is still incomplete but we will show the data we have got at present which have been performed on a limited group of animals. The latency to spontaneous epileptic seizures was correlated on the same rats to the number of neurons remaining in the areas involved in the circuit of seizures.
Adult male Sprague-Dawley rats provided by Janvier Breeding Center (Le Genest-St-Isle, France) were housed under controlled, uncrowded standard conditions at 20-22° C. (light/dark cycle, 7.00 a.m.-7.00 p.m. lights on), with food and water available ad libitum. All animal experimentation was performed in accordance with the rules of the European Communities Council Directive of Nov. 24, 1986 (86/609/EEC), and the French Department of Agriculture (License No 67-97).
All rats received lithium chloride (3 meq/kg, i.p., Sigma, St Louis, Mo., U.S.A.) and about 20 h later, all animals received also methylscopolamine bromide (1 mg/kg, s.c., Sigma) that was administered to limit the peripheral effects of the convulsant. SE was induced by injecting pilocarpine hydrochloride (25 mg/kg, s.c., Sigma) 30 min after methylscopolamine. The effects of increasing doses of test compound (RWJ) were studied in 5 groups of rats. The animals received either 2.5 mg/kg diazepam, i.m., (DZP), or 30, 60, 90 or 120 mg/kg of test compound (RWJ30, RWJ60, RWJ90, RWJ120), i.p., at 1 h after the onset of SE. The control group received vehicle instead of pilocarpine and test compound. The rats surviving SE were then injected about 10 h after the first test compound injection with a second i.p. injection of 1.25 mg/kg DZP for the DZP group or of the same dose of test compound as in the morning and were maintained under a twice daily test compound treatment for 6 additional days (s.c.) while DZP rats received a vehicle injection. The effects of the four doses of test compound on the latency to occurrence of spontaneous recurrent seizures (SRS) were investigated by daily video recording of the animals for 10 h per day.

[2] = test system: Li-Pilo SE; assay: Lithium-pilocarpine model (Example 2): quantification of cell densities; type: in vivo, rat; conditions: for number of neuronal cell bodies, Dorsal entorhinal, layer II / number of neuronal cell bodies, Dorsal entorhinal, layer III / number of neuronal cell bodies, Piriform, layer II, dorsal / number of neuronal cell bodies, Piriform, layer II, ventral / number of neuronal cell bodies, Piriform, layer III / number of neuronal cell bodies, Ventral entorhinal, layer II / number of neuronal cell bodies, Ventral entorhinal, layers III-IV / number of neuronal cell bodies, hippocampus CA1 area / number of neuronal cell bodies, hippocampus CA3 area / number of neuronal cell bodies, hippocampus Hilus / damage, hilus of dentate gyrus / cell loss, CA1 pyramidal layer: 14 days after SE; for number of neuronal cell bodies, Dorsal entorhinal, layer II / number of neuronal cell bodies, Dorsal entorhinal, layer III / number of neuronal cell bodies, Piriform, layer II, dorsal / number of neuronal cell bodies, Piriform, layer II, ventral / number of neuronal cell bodies, Piriform, layer III / number of neuronal cell bodies, Ventral entorhinal, layer II / number of neuronal cell bodies, Ventral entorhinal, layers III-IV / number of neuronal cell bodies, hippocampus CA1 area / number of neuronal cell bodies, hippocampus CA3 area / number of neuronal cell bodies, hippocampus Hilus: mean ± S.E.M.
Procedure: Quantification of cell densities was performed at two times after SE: a first group was studied 14 days after SE and was composed by 7 DZP, 8 RWJ30, 11 RWJ60, 10 RWJ90, 8 RWJ120 and 8 control rats not subjected to SE. A second group used for the study of the latency to SRS was sacrificed either 8 weeks after the first SRS or at 5 months when no SRS could be seen in that delay and was composed by 7 DZP, 2 RWJ30, 3 RWJ60, 3 RWJ90, 4 RWJ120 rats. Animals were deeply anesthetized with 1.8 g/kg pentobarbital (Dolethal®, Vétoquinol, Lure, France). Brains were then removed and frozen. Serial 20 μm slices were cut in a cryostat, air-dried during several days before thionine staining. Quantification of cell densities was performed with a 10×10 boxes 1 cm^2 microscopic grid on coronal sections according to the stereotaxic coordinates of the rat brain atlas (Paxinos and Watson, 1986, The Rat Brain in Stereotaxic coordinates, 2nd ed. Academic Press, San Diego). The grid of counting was placed on a well-defined area of the cerebral structure of interest and counting was carried out with a microscopic enlargement of 200- or 400-fold defined for each single cerebral structure. Cell counts were performed twice on each side of three adjacent sections for each region by a single observer unaware of the animal's treatment. The number of cells obtained in the 12 counted fields in each cerebral structure was averaged. This procedure was used to minimize the potential errors that could result from double counting leading to overestimation of cell numbers. […] Counts involved only neurons with cell bodies larger than 10 μm. Cells with small cell bodies were considered as glial cells and were not counted.
For neuronal damage, statistical analysis between groups was performed by means of a one-way analysis of variance followed by a post-hoc Scheffe's test using the Statview software.

In the case of `NC(=O)OC[C@@H](O)c1ccccc1Cl` [test compound], the “latency to spontaneous seizures, individual rats” value ([1]; 30 mg/kg, two rats) is reported as 8 days and 9 days, the “first spontaneous seizure after SE, individual rats” value (“first spontaneous seizure after SE” below) ([1]; 60 mg/kg, 3 rats) is reported as 7 days and 8 days and 38 days and the “first spontaneous seizure after SE” value ([1]; 90 mg/kg, 3 rats) is reported as 9 days and 10 days and 51 days. For the same compound, the “first spontaneous seizure after SE” value ([1]; 120 mg/kg, 2/4 rats with prolonged latency) was 79 days and 44 days, the “recording time following SE without any seizure” value ([1]; 120 mg/kg, the two other rats) was greater than 5 months and the “mortality over the first 48 h after SE” value ([1]; RWJ30 (30 mg/kg i.p.)) was 43%. The “mortality over the first 48 h after SE” value ([1]; RWJ60 (60 mg/kg i.p.)) was 0%, the “mortality over the first 48 h after SE” value ([1]; RWJ90 (90 mg/kg i.p.)) was 0% and the “mortality over the first 48 h after SE” value ([1]; RWJ120 (120 mg/kg i.p.)) was 47%. The degree of mortality ([1]; RWJ30) was 50%, the degree of mortality ([1]; RWJ60) was 0% and the degree of mortality ([1]; RWJ90) was 0%. The degree of mortality ([1]; RWJ120) was 0%, the “damage, piriform cortex ventral layer II” value ([2]; 60 mg/kg) was 56% and the “cell loss, piriform cortex layer III” value ([2]; 120 mg/kg) was 21%. For the same compound, the “damage, piriform cortex ventral layer II” value ([2]; 120 mg/kg) was 9%, the “neuroprotection in CA3 pyramidal layer” value ([2]; 120 mg/kg, difference with DZP not significant) was “tendency to a slight neuroprotection” and the “neuroprotection in all layers of the dorsal entorhinal cortex” value ([2]; 30 and 60 mg/kg) was “did not afford any neuroprotection”. The “damage, piriform cortex dorsal layer II” value ([2]; 60-120 mg/kg) was 4-21%, the “cell loss, piriform cortex layer III” value ([2]; 60 and 90 mg/kg (two lower of the 60-120 mg/kg doses)) was 53-64% and the “cell losses, ventral entorhinal cortex layers III/IV” value ([2]; 90 and 120 mg/kg) was 18-21%. For the same compound, the “damage remaining, entorhinal cortex dorsal layers II and III/IV and ventral layer II” value ([2]; 90 and 120 mg/kg) was 4-14%, the “number of neuronal cell bodies, Dorsal entorhinal, layer II” value ([2]; RWJ30 = 30 mg/kg) was 23.4 ± 0.8 and the “number of neuronal cell bodies, Dorsal entorhinal, layer III” value (“number … Dorsal entorhinal, layer III” below) ([2]; RWJ30 = 30 mg/kg) was 21.5 ± 1.3. For the same compound, the “number of neuronal cell bodies, Piriform, layer II, dorsal” value (shortened to “number … layer II, dorsal”) ([2]; RWJ30 = 30 mg/kg) was 15.7 ± 3.6, the “number of neuronal cell bodies, Piriform, layer II, ventral” value (shortened to “number … layer II, ventral”) ([2]; RWJ30 = 30 mg/kg) was 7.2 ± 4.6 and the “number of neuronal cell bodies, Piriform, layer III” value (“number … Piriform, layer III” below) ([2]; RWJ30 = 30 mg/kg) was 1.8 ± 2.3. For the same compound, the “number of neuronal cell bodies, Ventral entorhinal, layer II” value (from here on “number … Ventral entorhinal, layer II”) ([2]; RWJ30 = 30 mg/kg) was 22.7 ± 1.2, the “number of neuronal cell bodies, Ventral entorhinal, layers III-IV” value (“number … layers III-IV” below) ([2]; RWJ30 = 30 mg/kg) was 13.2 ± 2.5 and the “number of neuronal cell bodies, hippocampus CA1 area” value (“number … hippocampus CA1 area” below) ([2]; RWJ30 = 30 mg/kg) was 39.3 ± 5.0°°. For the same compound, the “number of neuronal cell bodies, hippocampus CA3 area” value (shortened to “number … hippocampus CA3 area”) ([2]; RWJ30 = 30 mg/kg) was 35.7 ± 1.4, the “number of neuronal cell bodies, hippocampus Hilus” value (“number … hippocampus Hilus” for short) ([2]; RWJ30 = 30 mg/kg) was 33.0 ± 4.0 and the “number of neuronal cell bodies, Dorsal entorhinal, layer II” value ([2]; RWJ60 = 60 mg/kg) was 24.1 ± 0.7. The “number … Dorsal entorhinal, layer III” value ([2]; RWJ60 = 60 mg/kg) was 24.0 ± 0.4, the “number … layer II, dorsal” value ([2]; RWJ60 = 60 mg/kg) was 28.9 ± 2.7°° and the “number … layer II, ventral” value ([2]; RWJ60 = 60 mg/kg) was 14.8 ± 5.9. For the same compound, the “number … Piriform, layer III” value ([2]; RWJ60 = 60 mg/kg) was 6.9 ± 2.9, the “number … Ventral entorhinal, layer II” value ([2]; RWJ60 = 60 mg/kg) was 23.1 ± 0.7 and the “number … layers III-IV” value ([2]; RWJ60 = 60 mg/kg) was 17.8 ± 2.8. For the same compound, the “number … hippocampus CA1 area” value ([2]; RWJ60 = 60 mg/kg) was 31.9 ± 4.4, the “number … hippocampus CA3 area” value ([2]; RWJ60 = 60 mg/kg) was 31.6 ± 2.1 and the “number … hippocampus Hilus” value ([2]; RWJ60 = 60 mg/kg) was 32.8 ± 5.4. The “number of neuronal cell bodies, Dorsal entorhinal, layer II” value ([2]; RWJ90 = 90 mg/kg) was 26.3 ± 0.9, the “number … Dorsal entorhinal, layer III” value ([2]; RWJ90 = 90 mg/kg) was 25.4 ± 1.3 and the “number … layer II, dorsal” value ([2]; RWJ90 = 90 mg/kg) was 32.4 ± 1.3°. The “number … layer II, ventral” value ([2]; RWJ90 = 90 mg/kg) was 18.4 ± 5.1, the “number … Piriform, layer III” value ([2]; RWJ90 = 90 mg/kg) was 9.0 ± 4.1 and the “number … Ventral entorhinal, layer II” value ([2]; RWJ90 = 90 mg/kg) was 26.7 ± 0.9°°. For the same compound, the “number … layers III-IV” value ([2]; RWJ90 = 90 mg/kg) was 23.7 ± 1.7°, the “number … hippocampus CA1 area” value ([2]; RWJ90 = 90 mg/kg) was 47.7 ± 5.4° and the “number … hippocampus CA3 area” value ([2]; RWJ90 = 90 mg/kg) was 35.1 ± 1.0. The “number … hippocampus Hilus” value ([2]; RWJ90 = 90 mg/kg) was 37.5 ± 5.2**°, the “number of neuronal cell bodies, Dorsal entorhinal, layer II” value ([2]; RWJ120 = 120 mg/kg) was 27.3 ± 0.5 and the “number … Dorsal entorhinal, layer III” value ([2]; RWJ120 = 120 mg/kg) was 26.4 ± 0.9. The “number … layer II, dorsal” value ([2]; RWJ120 = 120 mg/kg) was 35.2 ± 1.3°, the “number … layer II, ventral” value ([2]; RWJ120 = 120 mg/kg) was 30.5 ± 1.5° and the “number … Piriform, layer III” value ([2]; RWJ120 = 120 mg/kg) was 15.0 ± 2.5°°. The “number … Ventral entorhinal, layer II” value ([2]; RWJ120 = 120 mg/kg) was 25.1 ± 0.7, the “number … layers III-IV” value ([2]; RWJ120 = 120 mg/kg) was 24.5 ± 1.6° and the “number … hippocampus CA1 area” value ([2]; RWJ120 = 120 mg/kg) was 65.5 ± 2.9°. The “number … hippocampus CA3 area” value ([2]; RWJ120 = 120 mg/kg) was 39.8 ± 1.5, the “number … hippocampus Hilus” value ([2]; RWJ120 = 120 mg/kg) was 44.8 ± 3.6 and the “damage, hilus of dentate gyrus” value ([2]; RWJ30, 60 and 90 groups) was 62-66%. The “cell loss, CA1 pyramidal layer” value ([2]; RWJ30, 60 or 90 rats) was 36-57%, the “neuroprotection in piriform cortex” value ([2]; RWJ30 dose) was “did not protect any layer” and the “cell loss, CA1 pyramidal layer” value ([2]; RWJ120) was 13%. For the same compound, the “damage, hilus of dentate gyrus” value ([2]; RWJ120) was 54% and the “damage, piriform cortex ventral layer II” value ([2]; second dose of 'the 60 and 120 mg/kg RWJ dose' as printed) was 45%.
